Test results from patent publication US20030171379A1, “Methods of treating, preventing, or inhibiting inflammation with Mactanamide compounds” (priority 2001, published 2003).

Columns and labels:
[1] = system: RTX-induced inflammation (edema) of the mouse ear; experiment: Resiniferatoxin (RTX) assay, mouse ear edema; type: in vivo; conditions: topical in acetone, 50 ug/ear Mactanamide with 0.1 ug RTX per ear, 30 minutes, left ear weight minus right ear (acetone) weight
Experimental: A control, acetone, was applied to all right ears. After a 30 minute incubation, the mice were sacrificed, the ears removed, and bores taken and weighed.
Edema was measured by subtracting the weight of the right ear (control) from the weight of the left ear. The results were recorded as % decrease (inhibition) or % increase (potentiation) in edema relative to the control group edema.

[2] = system: PMA-induced inflammation (edema) of the mouse ear; experiment: Inhibition of mouse ear edema (PMA mouse ear model); type: in vivo; conditions: topical in acetone, 25 ug/ear Mactanamide with 2 ug/ear PMA, 3 hours 20 minutes, left ear weight minus right ear (acetone) weight
Experimental: The efficacy of Mactanamide compounds as an anti-inflammatory agent was established by the following assay. Mactanamide was topically applied in acetone to the inside pinnae of the ears of mice in a solution comprising an edema-causing irritant, phorbol 12-myristate 13-acetate (PMA). Specifically, 2 μg/ear of PMA alone or in combination with 25 μg/ear of Mactanamide was applied to the left ears (5 mice per treatment group) and acetone was applied to all right ears. After 3 hours, 20 minutes incubation, the mice were sacrificed, the ears removed and bores taken and weighed. Edema was measured by subtracting the weight of the right ear (acetone control) from the weight of the left ear (treated). Results were recorded as % decrease (inhibition) or % increase (potentiation) in edema relative to the PMA control group edema.

Q: Which results are given for CN1C(=O)C(Cc2c(O)cccc2O)NC(=O)C1Cc1ccccc1 (centres unmarked) [Mactanamide]?
A: Edema (mg ± SEM) [1]: 0.9 ± 0.5 mg; Edema (mg ± SEM) [2]: 2.6 ± 1.1 mg
